Calls of active or inactive are those of the source. No cut-off for these calls is given here.

The test system of test [1] is MCF7. The test is described as follows: Antiproliferative activity against human MCF7 cells assessed as reduction in cell viability after 24 hrs by MTT assay. Type of test: functional, cell-based. Particulars: MCF7, 24 h. In general terms: Tetrazolium assays rely on reduction of a dye to a coloured formazan, in cell work by metabolically active cells.
A short description of test [2]: Cell cycle arrest in human DU145 cells assessed as accumulation at G1 phase after 24 hrs by propidium iodide staining-based flow cytometry. Particulars: DU-145. Type of test: functional.
In test [3] the target is Sigma non-opioid intracellular receptor 1 (Cavia porcellus, UniProt Q60492). The test can be described thus: Displacement of [3H]-(+)-pentazocine from sigma-1 receptor in guinea pig brain membrane by competition binding assay. Type of test: cell membranes.
Chain of Sigma non-opioid intracellular receptor 1 (Cavia porcellus, UniProt Q60492) (Q60492 whole entry): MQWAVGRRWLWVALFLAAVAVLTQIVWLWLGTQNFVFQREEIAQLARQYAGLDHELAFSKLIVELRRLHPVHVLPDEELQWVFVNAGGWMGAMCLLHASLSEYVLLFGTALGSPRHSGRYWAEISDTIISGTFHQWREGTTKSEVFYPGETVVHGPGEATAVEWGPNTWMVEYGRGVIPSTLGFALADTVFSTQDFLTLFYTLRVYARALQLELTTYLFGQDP
Test [4] has as its system MDA-MB-435. The test can be described thus: Induction of apoptosis in human MDA-MB-435 cells assessed as decreased cyclin D1 expression at 10 uM incubated for 24 hrs by Western blot analysis. Type of test: functional, cell-based. Particulars: TDE = time-dependent effect.
Test [5] concerns MDA-MB-435. The test is described as follows: Induction of apoptosis in human MDA-MB-435 cells assessed as decreased cyclin B1 expression at 10 uM incubated for 24 hrs by Western blot analysis. Type of test: functional, cell-based. In general terms: In western blotting, separated proteins are transferred to a membrane and probed.
Test [6] can be described thus: Displacement of [3H]-DTG from sigma 2 receptor in rat brain by competition binding assay. Type of test: tissue-based. (In a radioligand displacement assay an active substance lowers the binding of a labelled ligand.)
A short description of test [7]: Displacement of [3H]-DTG from sigma 2 receptor in rat liver membrane by competition binding assay in presence of dextrallorphan. Type of test: cell membranes.
Test [8] can be described thus: Antiproliferative activity against human DU145 cells assessed as reduction in cell viability after 24 hrs by MTT assay. Type of test: functional, cell-based. Particulars: DU-145, 24 h.
For test [9], the system named is MDA-MB-435. The test can be described thus: Induction of apoptosis in human MDA-MB-435 cells assessed as decreased phospho-Rb expression at 10 uM incubated for 24 hrs by Western blot analysis. Type of test: functional, cell-based.
Test [10] relates to C6. The test is described as follows: Antiproliferative activity against rat C6 cells assessed as reduction in cell viability after 24 hrs by MTT assay. Type of test: functional, cell-based. Particulars: C6, 24 h.
A short description of test [11]: Cell cycle arrest in human DU145 cells assessed as accumulation at G1 phase at 15 to 25 uM after 24 hrs by propidium iodide staining-based flow cytometry (reference value: 58.2 %). Type of test: functional. Particulars: DU-145.
Test [12] relates to MCF7. The test is described as follows: Antiproliferative activity against human MCF7 cells assessed as reduction in cell viability after 48 hrs by MTT assay. Type of test: functional, cell-based. Particulars: MCF7, 48 h.
The species named for test [13] is Rattus norvegicus. The test can be described thus: Selectivity ratio of Ki for sigma 1 receptor in rat brain to Ki for sigma 2 receptor in rat liver membrane. Type of test: cell membranes.
The target in test [14] is Sigma non-opioid intracellular receptor 1 (Rattus norvegicus, UniProt Q9R0C9). The test is described as follows: Displacement of [3H]-(+)-pentazocine from sigma 1 receptor in rat brain by competition binding assay. Type of test: tissue-based.
Chain of Sigma non-opioid intracellular receptor 1 (Rattus norvegicus, UniProt Q9R0C9) (Q9R0C9 whole entry): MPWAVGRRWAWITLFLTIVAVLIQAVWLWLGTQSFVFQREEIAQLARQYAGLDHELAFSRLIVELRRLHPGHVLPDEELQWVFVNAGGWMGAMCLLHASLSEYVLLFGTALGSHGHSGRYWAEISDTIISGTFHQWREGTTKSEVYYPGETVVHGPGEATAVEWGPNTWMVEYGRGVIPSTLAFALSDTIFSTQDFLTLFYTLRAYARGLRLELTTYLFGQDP
Test [15] in a line: Cell cycle arrest in human DU145 cells assessed as accumulation at S phase at 30 uM after 24 hrs by propidium iodide staining-based flow cytometry (reference value: 38.6 %). Type of test: functional. Particulars: DU-145.
Test [16] is described as follows: Cell cycle arrest in human DU145 cells assessed as accumulation at G1 phase at 30 uM after 24 hrs by propidium iodide staining-based flow cytometry (reference value: 58.2 %). Type of test: functional. Particulars: DU-145.
Test [17] in a line: Cell cycle arrest in human DU145 cells assessed as accumulation at S phase at 40 uM after 24 hrs by propidium iodide staining-based flow cytometry (reference value: 38.6 %). Type of test: functional. Particulars: DU-145.
Test [18] can be described thus: Selectivity ratio of Ki for sigma 1 receptor in guinea pig brain membrane to Ki for sigma 2 receptor in rat liver membrane. Type of test: cell membranes.
Test [19] is described as follows: Cell cycle arrest in human DU145 cells assessed as accumulation at G1 phase at 40 uM after 24 hrs by propidium iodide staining-based flow cytometry (reference value: 58.2 %). Type of test: functional. Particulars: DU-145.

Consider `Fc1ccc(-n2cc(CCCCN3CCC4(CC3)OCc3ccccc34)c3ccccc32)cc1` [SIRAMESINE], for which the EC50 (as a rule, the concentration giving half of the maximal effect) is 23600 nM in test [1], 13900 nM in test [8], 43100 nM in test [10] and 12300 nM in test [12]. The Activity result in test [2] is “Dose-dependent effect”; in [4] it was “tde”; in test [11], 75.7%. Further, the values for the Ki in test [3] and in [7] were 10.5 nM and 3.08 nM, respectively. For the same compound, the result in [5] and in test [9] was Active. Also, in [6], the half-inhibitory concentration (IC50) – broadly, the concentration that inhibits the measured activity by half – worked out at 0.12 nM.

For the compound `COc1cc2c(cc1OC)CN(CCCCn1cc(CCF)c3ccccc31)CC2`, the Ratio Ki in [13] turned out to be 17.9. Besides, the Ki (usually the dissociation constant of the complex between target and ligand, obtained from inhibition or displacement) is 493 nM in [14] and 27.5 nM in test [7].

On to `COc1cc2c(cc1OC)CN(CCCCn1cc(CCCF)c3ccccc31)CC2`, for which, in [13], the Ratio Ki was 9.2. In addition, the inhibitory constant (Ki) came out at 263 nM in test [14] and 28.5 nM in test [7].

Turning to `FCCn1cc(CCCCN2CCC3(CC2)OCc2ccccc23)c2ccccc21`, the Ratio Ki in test [13] was 5.6. Moreover, the values for the inhibition constant Ki in test [14] and in test [7] were 246 nM and 44 nM, respectively.

Turning to `COc1cc2c(cc1OC)CN(CCCCc1cn(-c3ccc(F)cc3)c3ccccc13)C2`, the EC50 in test [1] came out at 17000 nM; in [8] it was 26900 nM; in test [10] it was 44100 nM. The values for the Activity entry in [2], in [15] and in test [16] were “Dose-dependent effect”, 19.3% and 80.5%, respectively. In addition, the Ratio Ki in test [13] came to 4.8. Also, the Ki in test [14] came to 256 nM; in test [7], 53.8 nM.

Turning to `COc1cc2c(cc1OC)CN(CCCCC(=O)c1ccc(F)cc1)CC2`, the Ratio Ki in test [13] stood at 1.3. Further, the inhibitory constant (Ki) amounted to 16.6 nM in test [14] and 12.4 nM in test [7].

For `N#CC1(c2ccccc2)CCN(CCCCc2cn(-c3ccc(I)cc3)c3ccccc23)CC1`, in test [13], the Ratio Ki is 20.9. Moreover, the Ki was found to be 386 nM in [14] and 18.5 nM in test [7].

Consider `FCCc1cn(CCCCN2CCC3(CC2)OCc2ccccc23)c2ccccc12`, for which the Ratio Ki in test [13] worked out at 0.4. Besides, the inhibition constant (Ki) in test [14] is 11 nM; in test [7], 29.8 nM.

Turning to `N#CC1(c2ccccc2)CCN(CCCCc2cn(-c3ccc(F)cc3)c3ccccc23)CC1`, the Ratio Ki in [13] came to 0.9. The Ki is 2.58 nM in test [14] and 3.03 nM in test [7].

On to `FCCOc1ccc(N2CCN(CCCCc3cn(-c4ccc(F)cc4)c4ccccc34)CC2)cc1`, for which the Ratio Ki in test [13] came out at 9. Moreover, the Ki in [14] is 614 nM; in [7], 68 nM.

`FCCOCCOCCOc1ccc(N2CCN(CCCCc3cn(-c4ccc(F)cc4)c4ccccc34)CC2)cc1`: in [13], the Ratio Ki was 1.1. The values for the Ki in test [14] and in [7] were 2160 nM and 1880 nM, respectively.

Regarding `FCCOCCOc1ccc(N2CCN(CCCCc3cn(-c4ccc(F)cc4)c4ccccc34)CC2)cc1`, the Ratio Ki in test [13] was 2.4. For the same compound, the inhibition constant (Ki) came out at 1110 nM in test [14] and 458 nM in [7].

Regarding `FCCOc1cccc(N2CCN(CCCCc3cn(-c4ccc(F)cc4)c4ccccc34)CC2)c1`, the Ratio Ki in test [13] turned out to be 5.3. The Ki in test [14] was found to be 257 nM; in test [7] it was 48.4 nM.

Regarding `COc1cc2c(cc1OC)CN(CCCCc1cn(-c3ccc(F)cc3)c3ccccc13)CC2`, the EC50 is 20900 nM in test [1], 28800 nM in test [8], 76500 nM in [10] and 17800 nM in [12]. For the same compound, the Activity result in test [2] is “Dose-dependent effect”; in test [17], 15.9%; in [19], 84.1%. The Ratio Ki amounted to 260 in test [18] and 10.8 in test [13]. The Ki in [14] is 531 nM; in test [7] it was 49.2 nM.

(Values after ChEMBL document CHEMBL3739327, “Novel indole-based sigma-2 receptor ligands: synthesis, structureaffinity relationship and antiproliferative activity” (Medchemcomm, 2015).)
